This is an account of results in US20260184715A1, “NOVEL PYRROLO[1,2-d][1,2,4] TRIAZINONE DERIVATIVES AS NEGATIVE ALLOSTERIC MODULATORS OF MGLU7 RECEPTORS” (Neurosterix Pharma Sarl., priority 2022, published 2026).

In the test the target is T1, human metabotropic glutamate 7 receptor (hmGlu7) (Homo sapiens, UniProt Q14831).
T1 construct: expressed in transfected cells
Briefly: mGlu7 assay on HEK-expressing human mGlu7: fluorescent cell based-Ca2+ mobilization assay (FLIPR), inhibition of EC80 L-AP4 response. Conditions: HEK-293 cells expressing hmGlu7, EC80 L-AP4; mean of at least three independent experiments in duplicate; read-out: Ca^2+ Flux (mean IC50). The source says:
mGlu7 Assay on HEK-Expressing Human mGLU7
The cDNA encoding the human metabotropic glutamate 7 receptor (hmGlu7), (accession number NM_181874.2, NCBI Nucleotide database browser), was subcloned into an expression vector containing also the hygromycin resistance gene. In parallel, the cDNA encoding a G protein allowing redirection of the activation signal to intracellular calcium flux was subcloned into a different expression vector containing also the Puromycin resistance gene. Transfection of both these vectors into HEK293 cells with PolyFect reagent (Qiagen) according to supplier's protocol, and hygromycin and puromycin treatment allowed selection of antibiotic resistant cells which had integrated stably one or more copies of the plasmids. Positive cellular clones expressing hmGlu7 were identified in a functional assay measuring changes in calcium fluxes in response to glutamate and L-AP4 or known mGlu7 orthosteric antagonists.
HEK-293 cells expressing hmGlu7 were maintained in media containing DMEM, Fetal Bovine Serum (10%), GlutaMAX™ (2 mM), penicillin (100 units/mL), streptomycin (100 μg/mL), geneticin (100 μg/mL) and hygromycin-B (40 μg/mL) and puromycin (1 μg/mL) at 37° C. with 5% CO2 in a humidified atmosphere.
Human mGlu7 HEK-293 cells were plated out 24 hours prior to a fluorescent cell-based calcium mobilization assay using FLIPR^384 assay (Molecular Device, Sunnyvale, CA, USA) in black-walled, clear-bottomed, poly-L-ornithine-coated 384-well plates at a density of 25,000 cells/well in a glutamine/glutamate free DMEM medium containing fetal bovine serum (10%), penicillin (100 units/mL), streptomycin (100 μg/mL) and doxycyline (1 μg/ml) at 37° C. with 5% CO2 in a humidified atmosphere.
On the day of the assay, the medium was aspirated and the cells were loaded with a 3 μM solution of Fluo4-AM (LuBioScience, Lucerne, Switzerland) in 0.03% pluronic acid. After 1 hour at 37° C./5% CO2, the non incorporated dye was removed by washing cell plate with the assay buffer. All assays were performed in a pH 7.4 buffered-Solution containing 20 mM HEPES, 143 mM NaCl, 6 mM KCl, 1 mM MgSO4, 1 mM CaCl2, 0.125 mM sulfinpyrazone and 0.1% glucose.
After 10 s of basal fluorescence recording, various concentrations of the compounds of the invention were added to the cells. Changes in fluorescence levels were first monitored for 180 s in order to detect any agonist activity of the compounds. Then the cells were stimulated by an EC80 L-AP4 concentration for an additional 110 s in order to measure inhibiting activities of the compounds of the invention. EC80 L-AP4 concentration is the concentration giving 80% of the maximal glutamate response.
The concentration-response curves of L-AP4 or representative compounds of the present invention were generated using the Prism GraphPad software (Graph Pad Inc, San Diego, USA). The curves were fitted to a four-parameter logistic equation:
(Y=Bottom+(Top−Bottom)/(1+10^((Log IC50−X)*Hill Slope)
allowing determination of IC50 values.
The Table 3 below represents the mean IC50 obtained from at least three independent experiments of selected molecules performed in duplicate.
In general terms: Calcium assays in cells follow changes in intracellular calcium, usually with a dye or a luminescent sensor.

T1 sequence (Q14831 35-922 isoform Q14831-2 limits assumed): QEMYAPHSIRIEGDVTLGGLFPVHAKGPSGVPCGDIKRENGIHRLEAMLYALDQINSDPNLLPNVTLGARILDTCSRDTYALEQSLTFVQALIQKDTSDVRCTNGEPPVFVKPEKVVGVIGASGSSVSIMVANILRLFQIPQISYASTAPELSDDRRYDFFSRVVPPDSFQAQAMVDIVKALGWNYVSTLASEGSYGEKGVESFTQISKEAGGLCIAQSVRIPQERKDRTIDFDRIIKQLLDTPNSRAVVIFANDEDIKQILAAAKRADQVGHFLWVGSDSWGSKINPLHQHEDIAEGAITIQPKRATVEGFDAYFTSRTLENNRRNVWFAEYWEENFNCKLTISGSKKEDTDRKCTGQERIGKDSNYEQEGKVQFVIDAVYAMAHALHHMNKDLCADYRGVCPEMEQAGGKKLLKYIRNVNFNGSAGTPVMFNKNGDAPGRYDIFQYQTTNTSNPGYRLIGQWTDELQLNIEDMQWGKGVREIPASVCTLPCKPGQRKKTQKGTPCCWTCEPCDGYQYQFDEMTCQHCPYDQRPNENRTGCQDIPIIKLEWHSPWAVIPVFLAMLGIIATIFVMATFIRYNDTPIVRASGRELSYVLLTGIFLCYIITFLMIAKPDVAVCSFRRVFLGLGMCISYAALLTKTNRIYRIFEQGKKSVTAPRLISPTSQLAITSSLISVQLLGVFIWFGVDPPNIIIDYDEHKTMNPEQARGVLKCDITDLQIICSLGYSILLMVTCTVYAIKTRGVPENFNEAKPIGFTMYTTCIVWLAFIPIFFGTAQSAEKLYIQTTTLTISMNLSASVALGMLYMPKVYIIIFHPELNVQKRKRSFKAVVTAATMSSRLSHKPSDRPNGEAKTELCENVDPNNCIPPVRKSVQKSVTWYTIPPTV

`Cc1ccc(OC2CC2)cc1-c1c(C)c2cnn(-c3ncccn3)c(=O)n2c1C` [1-93]: the IC50 (commonly the point on the concentration scale where inhibition reaches its midpoint) is below 100 nM.

In the case of `COc1ccc(-c2cc3cnn(-c4ccccn4)c(=O)n3c2C)cn1` [1-142], the half-maximal inhibitory concentration (IC50) fell in the range of 100 to 1000 nM.

On to `COc1cc(-c2cc3cnn(-c4ncccn4)c(=O)n3c2C)ccn1` [1-114], for which the IC50 is below 100 nM.

In the case of `Cc1c(-c2cccc(OC3CC3)c2)c(C)n2c(=O)n(-c3ncc(N)cn3)ncc12` [1-81], the IC50 was in the range of 100 to 1000 nM.

Regarding `CCn1ncc2c(C)c(-c3cccc4c3CCCN4C)c(C)n2c1=O` [1-94], the IC50 was in the range of 100 to 1000 nM.

For `COc1ccc(-c2c(C)c3cnn(-c4ccccn4)c(=O)n3c2C)c(F)c1` [1-136], the IC50 is below 100 nM.

For the compound `Cc1c(-c2cccc(OC(F)F)c2)cc2cnn(-c3ccccn3)c(=O)n12` [1-70], the 50% inhibitory concentration (IC50) is 100 to 1000 nM.

With `Cc1c(OC2CC2)cccc1-c1cc2cnn(-c3ncccn3)c(=O)n2c1` [1-18, 7-[3-(cyclopropoxy)-2-methyl-phenyl]-3-pyrimidin-2-yl-pyrrolo[1,2-d][1,2,4]triazin-4-one], the IC50 was 100 to 1000 nM.

With `Cc1c(OC(F)F)cccc1-c1cc2cnn(-c3ncccn3)c(=O)n2c1C` [1-75], the IC50 was below 100 nM.

Regarding `COc1cnc(-n2ncc3c(C)c(-c4ccc(C)cc4C)c(C)n3c2=O)nc1` [1-46], the IC50 was in the range of 100 to 1000 nM.

As to `COc1cccc(-c2c(C)c3cnn(-c4ncccn4)c(=O)n3c2C)n1` [1-98], the IC50 lay in the range of 100 to 1000 nM.

As to `Cc1c(OC2CC2)cccc1-c1cc2cnn(-c3ccccn3)c(=O)n2c1C` [1-84], the concentration for half-maximal inhibition (IC50) lay within 100 to 1000 nM.

Regarding `Cc1c(OC2CC2)cccc1-c1c(C)c2cnn(-c3ncc(F)cn3)c(=O)n2c1C` [1-49], the IC50 lay in the range of 100 to 1000 nM.

Turning to `COc1cnc(-n2ncc3c(C)c(-c4cccc(N5CCC5)c4)c(C)n3c2=O)nc1` [1-25], the 50% inhibitory concentration (IC50) is below 100 nM.

Take `COc1cccc(-c2cc3cnn(-c4ncccn4)c(=O)n3c2C)c1C` [1-76]: the IC50 is below 100 nM.

With `CCOC(=O)c1cnc(-n2ncc3c(C)c(-c4cccc(OC5CC5)c4)c(C)n3c2=O)nc1` [1-19], the IC50 fell in the range of 1000 to 10000 nM.

In the case of `Cc1c(-c2cccc3c2CCN3C(C)C)cc2cnn(-c3ncccn3)c(=O)n12` [1-68], the 50% inhibitory concentration (IC50) was below 100 nM.

Consider `CCn1ncc2c(C)c(-c3cccc4c3CCN4C)c(C)n2c1=O` [1-100], for which the 50% inhibitory concentration (IC50) lay within 100 to 1000 nM.

As to `Cc1ccc(-c2c(C)c3cnn(-c4ncccn4)c(=O)n3c2C)c(C)c1` [1-79], the IC50 fell in the range of 1000 to 10000 nM.

For the compound `COc1ccc(-c2c(C)c3cnn(-c4ncccn4)c(=O)n3c2C)c(F)c1` [1-135], the IC50 was below 100 nM.

Regarding `Cc1c(-c2cccc(N3CCC3)c2)c(C)n2c(=O)n(C)ncc12` [1-12], the half-inhibitory concentration (IC50) was in the range of 100 to 1000 nM.

As to `Cc1c(-c2cccc(OC(F)F)c2)c(C)n2c(=O)n(-c3ccccn3)ncc12` [1-37], the IC50 is below 100 nM.

With `COc1cccc(-c2c(C)c3cnn(-c4ccccn4)c(=O)n3c2C)c1` [1-2], the 50% inhibitory concentration (IC50) was below 100 nM.

Turning to `Cc1c(OC(F)F)cccc1-c1c(C)c2cnn(-c3ncccn3)c(=O)n2c1C` [1-120], the IC50 is 100 to 1000 nM.

On to `COc1cccc(-c2c(C)c3cnn(-c4ccccn4)c(=O)n3c2C)c1C` [1-4], for which the IC50 was in the range of 100 to 1000 nM.

Turning to `Cc1c(-c2cccc(N3CCC3)c2)c(C)n2c(=O)n(C3CCOCC3)ncc12` [1-5], the 50% inhibitory concentration (IC50) was in the range of 100 to 1000 nM.

As to `Cc1c(-c2cccc(N3CCC3)c2)c(C)n2c(=O)n(-c3ncccn3)ncc12` [1-23], the IC50 was below 100 nM.

On to `Cc1c(-c2cccc(N3CCC3)c2)c(C)n2c(=O)n(-c3ncc(F)cn3)ncc12` [1-15], for which the IC50 was below 100 nM.

As for `COc1nccc(-c2cc3cnn(-c4ncccn4)c(=O)n3c2C)c1F` [1-117], the IC50 was below 100 nM.

Consider `Cc1c(-c2cccc3c2CCN3C)cc2cnn(-c3ccccn3)c(=O)n12` [1-64], for which the IC50 was below 100 nM.

For `Cc1c(-c2cccc(N3CCC3)c2)c(C)n2c(=O)n(C3CC3)ncc12` [1-33], the half-inhibitory concentration (IC50) was 100 to 1000 nM.

As to `COc1cccc(-c2c(C)c3cnn(-c4ncccn4)c(=O)n3c2C)c1C` [1-95], the 50% inhibitory concentration (IC50) was in the range of 100 to 1000 nM.

In the case of `COc1ccc(-c2c(C)c3cnn(-c4ncccn4)c(=O)n3c2C)c(C)c1` [1-134], the IC50 is below 100 nM.

With `COc1cc(F)cc(-c2cc3cnn(-c4ccccn4)c(=O)n3c2C)c1` [1-101], the IC50 was 100 to 1000 nM.

Consider `COc1ccc(-c2c(C)c3cnn(-c4ncccn4)c(=O)n3c2C)cn1` [1-132], for which the 50% inhibitory concentration (IC50) was below 100 nM.

In the case of `Cc1c(C2=CCCCC2)c(C)n2c(=O)n(-c3ccccn3)ncc12` [1-14], the half-inhibitory concentration (IC50) fell in the range of 1000 to 10000 nM.

For `Cc1c(-c2cccc3c2CCCN3C2CC2)c(C)n2c(=O)n(-c3ncccn3)ncc12` [1-121], the IC50 fell in the range of 100 to 1000 nM.

Take `Cc1c(-c2cccc3c2CCN3C2CC2)c(C)n2c(=O)n(-c3ncccn3)ncc12` [1-99]: the concentration for half-maximal inhibition (IC50) fell in the range of 100 to 1000 nM.

Consider `Cc1cnc(-n2ncc3c(C)c(-c4cccc(OC5CC5)c4C)c(C)n3c2=O)nc1` [1-52], for which the concentration for half-maximal inhibition (IC50) lay within 100 to 1000 nM.

Take `Cc1c(-c2cccc3c2CCO3)cc2cnn(-c3ccccn3)c(=O)n12` [1-69]: the 50% inhibitory concentration (IC50) was below 100 nM.

With `COc1ccc(-c2c(C)c3cnn(-c4ncccn4)c(=O)n3c2C)c(C)n1` [1-137], the concentration for half-maximal inhibition (IC50) is 100 to 1000 nM.

Consider `Cc1c(-c2cccc(OC3CC3)c2)c(C)n2c(=O)n(-c3ncc(N4CCOCC4)cn3)ncc12` [1-47, 7-[3-(cyclopropoxy)phenyl]-6,8-dimethyl-3-(5-morpholinopyrimidin-2-yl)pyrrolo[1,2-d][1,2,4]triazin-4-one], for which the IC50 was in the range of 100 to 1000 nM.

As for `COc1cccc(-c2c(Br)c3cnn(-c4ccccn4)c(=O)n3c2C)c1F` [1-115, 8-bromo-7-(2-fluoro-3-methoxy-phenyl)-6-methyl-3-(2-pyridyl)pyrrolo[1,2-d][1,2,4]triazin-4-one], the IC50 lay within 100 to 1000 nM.

Regarding `Cc1c(-c2cccc(N3CCC3)c2)c(C)n2c(=O)n(-c3ccc(N(C(=O)OC(C)(C)C)C(=O)OC(C)(C)C)cn3)ncc12` [1-28], the half-inhibitory concentration (IC50) lay in the range of 1000 to 10000 nM.

As for `Cc1c(-c2cccc(OC(F)(F)F)c2)c(C)n2c(=O)n(-c3ccccn3)ncc12` [1-38], the IC50 lay in the range of 100 to 1000 nM.

`COc1cnc(-n2ncc3c(C)c(-c4cccc(OC(F)(F)F)c4)c(C)n3c2=O)nc1` [1-56]: the concentration for half-maximal inhibition (IC50) lay in the range of 100 to 1000 nM.

Regarding `Cc1c(-c2cccc(N3CCC3)c2)c(C)n2c(=O)n(-c3ncc(OC(F)F)cn3)ncc12` [1-42], the concentration for half-maximal inhibition (IC50) was below 100 nM.

With `COc1nccc(-c2cc3cnn(-c4ccccn4)c(=O)n3c2C)c1F` [1-116], the IC50 lay in the range of 100 to 1000 nM.

Consider `Cc1ccc(N2CCC2)cc1-c1c(C)c2cnn(-c3ccccn3)c(=O)n2c1C` [1-16], for which the IC50 lay in the range of 100 to 1000 nM.

For the compound `Cc1c(-c2cccc3c2ccn3C)c(C)n2c(=O)n(-c3ncccn3)ncc12` [1-97], the half-maximal inhibitory concentration (IC50) is 100 to 1000 nM.

On to `Cc1c(-c2cccc3c2CCN3C2CC2)cc2cnn(-c3ccccn3)c(=O)n12` [1-65], for which the concentration for half-maximal inhibition (IC50) is below 100 nM.

Regarding `Cc1c(-c2cccc(OC3CC3)c2)c(C)n2c(=O)n(-c3ncccn3)ncc12` [1-29], the IC50 was below 100 nM.

`Cc1c(-c2cccc(OC(F)F)c2)c(C)n2c(=O)n(-c3ncccn3)ncc12` [1-58]: the IC50 was below 100 nM.

Regarding `COc1ccc(-c2c(C)c3cnn(-c4ccccn4)c(=O)n3c2C)cc1` [1-130], the IC50 lay in the range of 100 to 1000 nM.

`Cc1c(-c2ccnc3c2CCN3C)cc2cnn(-c3ccccn3)c(=O)n12` [1-118, 6-methyl-7-(1-methyl-2,3-dihydropyrrolo[2,3-b]pyridin-4-yl)-3-(2-pyridyl)pyrrolo[1,2-d][1,2,4]triazin-4-one]: the half-inhibitory concentration (IC50) was below 100 nM.

On to `Cc1c(-c2cccc3c2CCN3C(C)C)cc2cnn(-c3ccccn3)c(=O)n12` [1-66], for which the IC50 lay within 100 to 1000 nM.

Turning to `Cc1c(-c2cccc(N3CCC3)c2)c(C)n2c(=O)n(-c3ncc(OCCN(C)C)cn3)ncc12` [1-43], the IC50 is 100 to 1000 nM.

Regarding `Cc1c(-c2cc(F)cc(N3CCC3)c2)c(C)n2c(=O)n(-c3ccccn3)ncc12` [1-30], the half-inhibitory concentration (IC50) was below 100 nM.

As for `COc1cnc(-n2ncc3c(C)c(-c4cccc(OC(F)F)c4)c(C)n3c2=O)nc1` [1-57], the IC50 was in the range of 100 to 1000 nM.

In the case of `Cc1c(-c2cccc(OC3CC3)c2)cc2cnn(-c3ncccn3)c(=O)n12` [1-88], the IC50 was below 100 nM.
